In patent publication US20250082674A1, “METHODS OF TREATING COPPER METABOLISM-ASSOCIATED DISEASES OR DISORDERS” (priority 2021, published 2025):
Where two headings read alike, the source gives them in different places.

Key:
copper = tested on: copper
Method: Study 204 is registered with ClinicalTrials.gov, number NCT04573309, and is described in Example 1 of U.S. Provisional Patent Application No. 63/237,120, filed Aug. 25, 2021, and incorporated by reference herein. […] The participants remained on a Cu-controlled diet, and Cu and Mo balance were measured on all intake (i.e., investigational agent, food and fluids) and all output (urine and feces). The Cu and Mo concentration of each sample was determined by inductively coupled plasma mass spectrometry (ICP-MS). Copper and Mo content of all intake and output was calculated based on the volume or weight of intake and output and the concentration of representative samples.
Collection periods for feces and urine varied in duration from 3 to 15 days to support assessment of both Cu and Mo balance before and at steady state for both 15 mg and 30 mg. Equilibration periods on Cu/Mo-controlled diets were a minimum of 48 hours. Copper balance was calculated as the mean daily Cu balance over each of the 4 collection periods. The interpretation of Cu balance was based on the criteria previously established when undertaking Cu balance studies with zinc treatment.
These participants had all intake (food and drink) and output (urine and feces) collected from Day-4 through Day-1 (baseline), from Day 1 through Day 8, and Day 25 through Day 39.

^64Cu in blood = tested on: ^64Cu in blood
Method: 15 minutes after intravenous administration of ^64Cu, a dynamic PET-MR scan was performed, followed by additional scans at 1, 2, 6, 20, 48, 54, and 68 hours. Venous blood samples were collected for quantitation of radioactivity at multiple time points.

[1] = Study 204, Days 25-28 (Steady State 15 mg/day)
[2] = Study 204, Days 31-35 (Accumulation 30 mg/day)
[3] = Study 204, Days 36-39 (Steady State 30 mg/day)

## Bis-choline tetrathiomolybdate [BC-TTM]
copper; [1]
  Daily Net Copper Balance, Change from Baseline, Median (IQR): −0.1459 (1.0434) mg
  Daily Net Copper Balance, Value, Mean (SD): 0.7638 (0.9138) mg
  Daily Net Copper Balance, Value, Median (IQR): 1.1434 (1.7052) mg
  Increase from Baseline in Average Daily Fecal Copper Excretion, Mean (SD): 0.4931 (0.4955) mg
  Increase from Baseline in Average Daily Urine Copper Excretion, Mean (SD): 0.1042 (0.08556) mg
copper; [2]
  Daily Net Copper Balance, Change from Baseline, Median (IQR): −0.3707 (0.1093) mg
  Daily Net Copper Balance, Value, Mean (SD): 0.8577 (0.3427) mg
  Daily Net Copper Balance, Value, Median (IQR): 0.8312 (0.6838) mg
  Increase from Baseline in Average Daily Fecal Copper Excretion, Mean (SD): 0.3879 (0.4193) mg
  Increase from Baseline in Average Daily Urine Copper Excretion, Mean (SD): 0.0744 (0.05427) mg
copper; [3]
  Daily Net Copper Balance, Change from Baseline, Median (IQR): −0.4225 (0.2275) mg
  Daily Net Copper Balance, Value, Mean (SD): 0.8582 (0.2565) mg
  Daily Net Copper Balance, Value, Median (IQR): 0.7986 (0.5024) mg
  Increase from Baseline in Average Daily Fecal Copper Excretion, Mean (SD): 0.0899 (0.2021) mg
  Increase from Baseline in Average Daily Urine Copper Excretion, Mean (SD): 0.1042 (0.04328) mg
copper; Study 204, Table 10, Days 1-8 (Accumulation 15 mg/day)
  Daily Net Copper Balance, Change from Baseline, Mean (SD): −0.4848 (0.119) mg
copper; Study 204, Table 10, Days 25-28 (Steady State 15 mg/day)
  Daily Net Copper Balance, Change from Baseline, Mean (SD): −0.4865 (0.5993) mg
copper; Study 204, Table 10, Days 31-35 (Accumulation 30 mg/day)
  Daily Net Copper Balance, Change from Baseline, Mean (SD): −0.3925 (0.05781) mg
copper; Study 204, Table 10, Days 36-39 (Steady State 30 mg/day)
  Daily Net Copper Balance, Change from Baseline, Mean (SD): −0.3921 (0.1168) mg
copper; Study 204, Table 13, Days 1-8 (Accumulation 15 mg/day)
  Decrease from Baseline in Average Daily Net Copper Balance, Change from Baseline Mean (SD): −0.4848 (0.119) mg
copper; Study 204, Table 13, Days 1-39
  Decrease from Baseline in Average Daily Net Copper Balance, Change from Baseline Mean (SD): −0.448 (0.1469) mg
copper; Study 204, Table 13, Days 25-28 (Steady State 15 mg/day)
  Decrease from Baseline in Average Daily Net Copper Balance, Change from Baseline Mean (SD): −0.6381 (0.7673) mg
copper; Study 204, Table 13, Days 31-35 (Accumulation 30 mg/day)
  Decrease from Baseline in Average Daily Net Copper Balance, Change from Baseline Mean (SD): −0.3925 (0.05781) mg
copper; Study 204, Table 13, Days 36-39 (Steady State 30 mg/day)
  Decrease from Baseline in Average Daily Net Copper Balance, Change from Baseline Mean (SD): −0.2765 (0.3138) mg
^64Cu in blood; Post (after BC-TTM treatment), 5 sec
  Intravenously injected ^64Cu in the blood: 0.05
^64Cu in blood; Post (after BC-TTM treatment), 15 sec
  Intravenously injected ^64Cu in the blood: 1.02
^64Cu in blood; Post (after BC-TTM treatment), 60 sec
  Intravenously injected ^64Cu in the blood: 4.16
^64Cu in blood; Post (after BC-TTM treatment), 120 sec
  Intravenously injected ^64Cu in the blood: 3.47 (4.65)
^64Cu in blood; Post (after BC-TTM treatment), 200 sec
  Intravenously injected ^64Cu in the blood: 5.01
^64Cu in blood; Post (after BC-TTM treatment), 300 sec
  Intravenously injected ^64Cu in the blood: 6.99
^64Cu in blood; Post (after BC-TTM treatment), 600 sec
  Intravenously injected ^64Cu in the blood: 7.03
^64Cu in blood; Post (after BC-TTM treatment), 1 hour
  Intravenously injected ^64Cu in the blood: 5.43
^64Cu in blood; Post (after BC-TTM treatment), 2 hours
  Intravenously injected ^64Cu in the blood: 5.09
^64Cu in blood; Post (after BC-TTM treatment), 6 hours
  Intravenously injected ^64Cu in the blood: 2.54
^64Cu in blood; Post (after BC-TTM treatment), 20 hours
  Intravenously injected ^64Cu in the blood: 0.77 (0.41)
^64Cu in blood; Post (after BC-TTM treatment), 48 hours
  Intravenously injected ^64Cu in the blood: 0.51
^64Cu in blood; Post (after BC-TTM treatment), 54 hours
  Intravenously injected ^64Cu in the blood: 0.42
^64Cu in blood; Post (after BC-TTM treatment), 68 hours
  Intravenously injected ^64Cu in the blood: 0.42
^64Cu in blood; Pre (before BC-TTM treatment), 5 sec
  Intravenously injected ^64Cu in the blood: 0.00
^64Cu in blood; Pre (before BC-TTM treatment), 15 sec
  Intravenously injected ^64Cu in the blood: 0.00
^64Cu in blood; Pre (before BC-TTM treatment), 60 sec
  Intravenously injected ^64Cu in the blood: 5.30
^64Cu in blood; Pre (before BC-TTM treatment), 120 sec
  Intravenously injected ^64Cu in the blood: 5.15 (4.28)
^64Cu in blood; Pre (before BC-TTM treatment), 200 sec
  Intravenously injected ^64Cu in the blood: 5.13
^64Cu in blood; Pre (before BC-TTM treatment), 300 sec
  Intravenously injected ^64Cu in the blood: 5.88
^64Cu in blood; Pre (before BC-TTM treatment), 600 sec
  Intravenously injected ^64Cu in the blood: 4.35
^64Cu in blood; Pre (before BC-TTM treatment), 1 hour
  Intravenously injected ^64Cu in the blood: 0.78
^64Cu in blood; Pre (before BC-TTM treatment), 2 hours
  Intravenously injected ^64Cu in the blood: 0.64
^64Cu in blood; Pre (before BC-TTM treatment), 6 hours
  Intravenously injected ^64Cu in the blood: 0.42
^64Cu in blood; Pre (before BC-TTM treatment), 20 hours
  Intravenously injected ^64Cu in the blood: 0.32 (0.06)
^64Cu in blood; Pre (before BC-TTM treatment), 48 hours
  Intravenously injected ^64Cu in the blood: 0.33
^64Cu in blood; Pre (before BC-TTM treatment), 54 hours
  Intravenously injected ^64Cu in the blood: 0.28
^64Cu in blood; Pre (before BC-TTM treatment), 68 hours
  Intravenously injected ^64Cu in the blood: 0.25
^64Cu in blood; WD patients, FIG. 31
  64Cu peak in blood and clearance from blood after treatment: higher peak in the blood and its clearance from blood was delayed
^64Cu in blood; WD patients, from 1 hour to 48 hours after intravenous 64Cu
  64Cu in the blood after versus before treatment: significantly more
